According to patent publication US20230158015A1, “DRUG COMBINATIONS FOR INHIBITING INFLAMMATION AND SRC KINASE ACTIVATION FOLLOWING INVASIVE SURGICAL PROCEDURES” (SINTETICA S.A., priority 2020, published 2023):

Experiments:
[1] = tested on: LPS-induced serum inflammatory cytokines; assay: LPS-induced inflammation model, serum inflammatory cytokines (LEGENDplex, flow cytometry); type: in vivo, mouse; conditions: serum of treated mice
Description: C57BL/6J mice (6-8 weeks) were purchased from Charles River Laboratories (USA) and acclimatized for at least 1 week before use. All mice were housed in a pathogen-free facility. The mice received LPS for 24 hours. Following 24 hours, mice were treated either with lidocaine alone or methylnaltrexone alone or a combination of both, as shown in Table 1.
At the conclusion of the study, the blood and tissue samples were collected for further study. The serum was used to determine pro-inflammatory cytokines using the LEGENDplex™ mouse inflammation panel (BioLegend, USA) kit followed by flow cytometry. The lungs and spleen tissue samples were used for hematoxylin and eosin (H&E) staining and immunohistochemical analyses for immune cells, including macrophages and natural killer (NK) cells, B cells, T cells, and its subsets. For histopathology and immunohistochemistry (IHC), tissue samples were prepared by cutting 4-µm sections from the paraffin blocks. IHC staining was performed by methods described earlier. The images were captured using bright field microscopy (Nikon Microscope). Two independent investigators evaluated the H&E and all immunohistochemical staining. For slide scoring, each investigator assessed the tissues and gave a score of 0 (no expression) to 4+ (strong uniform expression) as described previously. The data were expressed either as the mean ± SD or mean ± SEM by using Graph Pad Prism software.
Gram-negative bacterial infections are the main cause of acute lung injury, and LPS, which is the main component of the Gram-negative bacteria cell wall, is the major stimulus for the release of inflammatory mediators. Therefore, we measured the effect of lidocaine alone, methylnaltrexone alone, or a combination of lidocaine and methylnaltrexone on LPS-induced serum inflammatory cytokines profiles. Mouse inflammatory cytokines were measured in serum of control and LPS-challenged mice treated with drugs as described in Table 1, using the LEGENDplex™ mouse inflammation panel (BioLegend, USA) kit followed by flow cytometry as per manufacturer’s specifications. […] However, serum tumor necrosis factor-alpha (TNF-α), monocyte chemoattractant protein 1 (MCP- 1), interleukin 10 (IL-10), interleukin 6 (IL-6), and interleukin 17A (IL-17A) levels were found decreased in mice challenged with LPS and treated with lidocaine and methylnaltrexone together (FIGS. 14C-G). IL-1, IL-6, IL-17A, MCP-1, and TNFα are pro- inflammatory cytokines associated with inflammatory signaling. Taken together, these findings indicate that combined treatment of lidocaine and methylnaltrexone has the potential to suppress inflammatory signaling.

[2] = tested on: p-Src protein; assay: p-Src inhibition by increasing lidocaine doses in human pancreatic cancer cells (Western blot); type: cell-based; conditions: 30 minutes of treatment, 0-100 µM tested
Description: On day 1, pancreatic cancer cells were cultured until 300,000 cells per well in a 6 well plate were obtained. On day 2, the cells were treated with 0, 0.5, 1,5, 10, 15, 30, 50 and 100 µM lidocaine for 30 minutes. Plates were then collected and washed with phosphate buffered saline and stored at -80° C. Cells were subsequently lysed with 100 µl of radioimmunoprecipitation assay buffer with protease and phosphatase buffers.
Protein estimation was done using a Bradford assay under the following conditions: • A Western Blot was stripped with 6 M guanidine hydrochloride after phosphor-Src protein blocking to probe with total Src protein. • 10% SDS-PAGE 10 well Blocking: 5% bovine serum albumin for p-Src blot. • P-Src-Tyr416 (GeneTex GTX81151) Rb: 1:1000 in 5% bovine serum albumin, Overnight. • Total Src (Cell Signaling Technology 2108S ) Rb mAb 1:1000 overnight in 5% milk. • GAPDH (Invitrogen# AM4300) : 1:5000 in 5% milk overnight. • Wash: 4x for 5 minutes each with 1x TBST. • Developed using 50% femto for the p-Src protein and homemade ECL substrate for total Src and GAPDH protein.

CCN(CC)CC(=O)Nc1c(C)cccc1C [lidocaine, 2-diethylaminoaceto-2′,6′-xylidide]
serum interferon-gamma (IFNγ) level [1]: insignificant changes | serum interleukin 1 alpha (IL-1α) level [1]: insignificant changes | dose from which the level of p-Src protein is reduced [2]: ≥ 10 µM
